Molecules are shown by their SMILES.

The subject of test [1] is c-MYC G-quadruplex DNA, dual labelled (FRET) (DNA, G4) GGGGAGGGTGGGGAGGGTGGGG
Description: FRET melting. The settings on record: K+ (60 mM potassium cacodylate), pH 7.4, 100 nM DNA, 1 μM compound.

The subject of test [2] is dsDNA (control duplex DNA) (DNA, duplex) CAAAAATTTTTGCAAAAATTTTTG
Description: fluorescence titration (ligand fluorescence, Hill fit). The settings on record: K+ (100 mM Tris-KCl), pH 7.4, 25 °C, 1 μM ligand titrated with DNA.

Test [3] concerns dsDNA, dual labelled (FRET) (DNA, duplex) CAAAAATTTTTGCAAAAATTTTTG
Description: FRET melting. As to conditions: K+ (60 mM potassium cacodylate), pH 7.4, 100 nM DNA, 1 μM compound.

Test [4] relates to c-MYC G-quadruplex DNA (DNA, G4) GGGGAGGGTGGGGAGGGTGGGG
The experiment in a line: fluorescence titration (ligand fluorescence, Hill fit). As to conditions: K+ (100 mM Tris-KCl), pH 7.4, 25 °C, 1 μM ligand titrated with DNA.

As usually defined, the ΔTm is the change in melting temperature against a reference sample. In general, KD refers to the constant that tells how readily two partners part at equilibrium. Read a high KD as lower affinity. `CN(C)CCCNC(=O)c1ccc(-n2c3ccccc3c3cc(-c4cn(-c5ccc(N)cc5)nn4)ccc32)cc1`: the ΔTm amounted to 11.14±0.28 °C in test [1] and 1.61±0.12 °C in test [3]. Also, the KD in test [2] is more than 25000 nM; in test [4], 510 ± 50 nM.
On the same counts, the results for `CN(C)CCCNC(=O)c1ccc(-n2c3ccccc3c3cc(-c4cn(CCCN(C)C)nn4)ccc32)cc1` are 8.17±0.41 °C, 8.41±0.21 °C, 880 ± 20 nM and 1130 ± 30 nM.
For `CN(C)CCCNC(=O)c1ccc(-n2cc(-c3ccc4c(c3)c3ccccc3n4-c3ccc(C(=O)NCCCN(C)C)cc3)nn2)cc1` the same measures were 19.3±0.96 °C, 0.86±0.04 °C, more than 30000 nM and 170 ± 10 nM.

(Values after PMC5519986 (2017).)
